{"source": "patent US10077436B2", "about": "“Beta-glucosidase enzymes for increased biomass saccharification” (Edeniq, Inc., priority 2013, dated 2018)", "target": "T1, Aspergillus niger beta-glucosidase, wild type, yEdQ745-BG (CAB75696.1, SEQ ID NO:2) (Aspergillus niger, UniProt Q9P8F4)", "T1 construct": "strain yEdQ745", "T1 sequence (Q9P8F4 20-860)": "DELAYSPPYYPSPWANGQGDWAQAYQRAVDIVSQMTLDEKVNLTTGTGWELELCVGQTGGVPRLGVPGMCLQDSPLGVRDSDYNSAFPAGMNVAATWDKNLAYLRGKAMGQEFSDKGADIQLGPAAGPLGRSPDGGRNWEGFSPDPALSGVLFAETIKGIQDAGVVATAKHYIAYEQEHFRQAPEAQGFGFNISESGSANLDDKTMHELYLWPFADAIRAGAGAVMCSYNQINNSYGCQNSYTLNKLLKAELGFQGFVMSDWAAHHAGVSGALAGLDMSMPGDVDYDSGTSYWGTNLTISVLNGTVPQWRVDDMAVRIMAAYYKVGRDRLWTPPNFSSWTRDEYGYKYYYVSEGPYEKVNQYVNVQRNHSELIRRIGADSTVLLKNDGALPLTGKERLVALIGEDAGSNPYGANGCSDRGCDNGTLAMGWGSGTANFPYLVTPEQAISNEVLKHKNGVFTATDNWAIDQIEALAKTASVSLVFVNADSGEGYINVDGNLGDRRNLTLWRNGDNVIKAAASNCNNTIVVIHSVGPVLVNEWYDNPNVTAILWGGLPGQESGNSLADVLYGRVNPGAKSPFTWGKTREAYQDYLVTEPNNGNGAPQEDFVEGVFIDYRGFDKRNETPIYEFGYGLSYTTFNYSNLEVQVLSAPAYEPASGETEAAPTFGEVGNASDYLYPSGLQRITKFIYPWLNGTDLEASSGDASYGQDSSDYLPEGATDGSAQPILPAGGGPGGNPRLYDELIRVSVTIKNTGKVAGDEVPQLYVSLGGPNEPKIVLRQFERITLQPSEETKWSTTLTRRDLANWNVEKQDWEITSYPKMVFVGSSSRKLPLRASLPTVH", "assay": "BG kinetics, cellobiose hydrolysis assay (HPLC) with glucose as competitive inhibitor, yEdQ745-BG", "type": "biochemical", "text": "Accordingly, in some embodiments, the unmodified form of the beta-glucosidase is a wild-type or a naturally occurring beta-glucosidase, such as, for example, a fungal beta-glucosidase. The full nucleic acid and amino acid sequence for numerous fungal beta-glucosidases are available. The amino acid sequence of A. niger beta-glucosidase is provided as SEQ ID NO:2. Thus, in some embodiments, the unmodified beta-glucosidase is from an Aspergillus species. In some embodiments, the unmodified beta-glucosidase is from a Trichoderma species.\nThe beta-glucosidase (BG) gene from Aspergillus niger (Accession #CAB75696.1) was integrated into the TR3 yeast background at the T4U3 genomic site.\nThe BG-expressing strains were subsequently used in corn mash and corn stover simultaneous saccharification and fermentation (SSF) studies using flask scale and pilot plant fermentations. A 12-gallon corn stover fermentation was performed at 40° C. in which the beta-glucosidase secreting yeast strain was co-inoculated with three other engineered yeast strains individually expressing endoglucanase II, CBH1, and CBHII. Surviving TR3 Saccharomyces cerevisiae yeast strains individually expressing BG, EGII, CBH1 or CBH2 were recovered by plating onto solid medium. A clonal population of BG-secreting yeast was isolated and the BG gene integration confirmed. […]"}
{"compound": "OC[C@H]1OC(O)[C@H](O)[C@@H](O)[C@@H]1O", "note": "(some centres unmarked) [glucose]", "values": [{"measurement": "Ki", "result": "1560 ± 290", "unit": "µM"}, {"measurement": "Km/Ki", "setting": "inhibitor influence, Km for cellobiose / Ki for glucose, pH 4.8, 50° C.", "result": 0.93}]}
